Test results: patent US12213483B1, “Herbicidal compositions comprising trifludimoxazin” (BASF SE, priority 2024, dated 2025)
Where “and” joins values, the source holds several entries; their conditions need not be identical. Equal values may be shown once.

Legend:
Format in all cases: in vivo
[1] = test system: Euphorbia heterophylla (EPHHL); assay: Post-emergence application in field trials, EPHHL; details: 43 DAT; water volume 200 l/ha; growth stage 16-18; height 10-15 cm; 12.5 g ai/ha
Experimental: (§1) In the examples below, using the method of S. R. Colby (1967) “Calculating synergistic and antagonistic responses of herbicide combinations”, Weeds 15, p. 22ff., the value E, which is expected if the activity of the individual active compounds is only additive, was calculated: E=X+Y−(X·Y/100) • where • X=percent activity using active herbicide A at an application rate a; • Y=percent activity using active trifludimoxazin at an application rate b; • E=expected activity (in %) by A+B at application rates a+b.
(§2) If the value found experimentally is higher than the value E calculated according to Colby, a synergistic effect is present.
(§3) On field test sites, natural weed infestation or seeded weeds were treated post-emergence of the weeds.
(§4) In the field trials, the weedy plants were treated as indicated below.
(§5) Herbicide A-1 (342 g/I), trifludimoxazin (500 g/I) and saflufenacil (342 g/I) were, together with addition of 1% MSO (methylated seed oil) as adjuvant (unless indicated otherwise), formulated in water as distribution medium as indicated and sprayed with commercial flat fan nozzles.
(§6) In the following experiments, the herbicidal activity for the individual herbicidal compositions (solo and mixture applications) was assessed at the indicated days after treatment (DAT). […]

[2] = test system: Digitaria sanguinales (DIGSA); assay: Post-emergence application in greenhouse trials, DIGSA
Experimental: as §1, §2
(§7) The culture containers used were plastic pots containing loamy sand with approximately 3.0% of humus as substrate. The seeds of the test plants were sown separately for each species.
(§8) For the post-emergence treatment, the test plants were grown to a plant height of from 3 to 15 cm, depending on the plant habit, and only then treated with the active compounds which had been suspended or emulsified in water. To this end, the test plants were either sown directly, and grown in the same containers, or they were first grown separately as seedlings and transplanted into the test containers a few days prior to treatment.
(§9) Depending on the species, the plants were kept at 10-25° C. and 20-35° C., respectively.
(§10) The test period extended over 2 to 4 weeks. During this time, the plants were tended and their response to the individual treatments was evaluated.
(§11) Evaluation was carried out using a scale from 0 to 100. 100 means no emergence of the plants, or complete destruction of at least the above-ground parts, and 0 means no damage or normal course of growth. A good herbicidal activity is given at values of at least 70, and very good herbicidal activity is given at values of at least 85.
(§12) In the greenhouse trials, unless indicated otherwise, herbicide A, trifludimoxazin and saflufenacil were formulated (50 g/I) and applied with addition of 1% MSO (methylated seed oil) as adjuvant. The solvent used was water (200 I/ha).

[3] = test system: Sorghum halapense (SORHA); assay: Post-emergence application in greenhouse trials, SORHA
Experimental: as §1, §2, §7, §8, §9, §10, §11, §12

Avena fatua (AVEFA) = assay: Post-emergence application in greenhouse trials, AVEFA
Experimental: as §1, §2, §7, §8, §9, §10, §11, §12

Kochia scoparia (KCHSC) = assay: Post-emergence application in greenhouse trials, KCHSC
Experimental: as §1, §2, §7, §8, §9, §10, §11, §12

[4] = test system: Spermacoce latifolia (BOIFL); assay: Post-emergence application in field trials, BOIFL; details: 8 DAT; water volume 200 l/ha; growth stage 12-16; height 3-10 cm; 12.5 g ai/ha
Experimental: as §1, §2, §3, §4, §5
(§13) In the following experiments, the herbicidal activity for the individual herbicidal compositions (solo and mixture applications) was assessed at the indicated days after treatment (DAT). The assessments for the damage on undesired weeds caused by the composition was carried out using a scale from 0 to 100%, compared to the untreated control plants. Here, 0 means no damage and 100 means complete destruction of the plants.
(§14) Herbicide A-1 (100 g/l) and trifludimoxazin (500 g/l) were, together with addition of 1% MSO (methylated seed oil) as adjuvant (unless indicated otherwise), formulated in water as distribution medium as indicated and sprayed with commercial flat fan nozzles.

Setaria faberi (SETFA) = assay: Post-emergence application in greenhouse trials, SETFA; details: GS 13
Experimental: as §1, §2, §7, §8, §9, §10, §11, §12

[5] = test system: Amaranthus palmeri (AMAPA); assay: Post-emergence application in field trials, AMAPA; details: 21 DAT; water volume 200 l/ha; 0.25 l/ha Dash MSO Max; pre plant burndown; height 30 cm; B-1 12.5 g ai/ha
Experimental: as §1, §2, §3, §4, §5, §13, §14

[6] = test system: Erigeron canadensis (ERICA); assay: Post-emergence application in field trials, ERICA; details: 22 DAT; water volume 200 l/ha; growth stage 15-20; 25 g ai/ha
Experimental: as §1, §2, §3, §4, §5, §6

Setaria viridis (SETVI) = assay: Post-emergence application in greenhouse trials, SETVI
Experimental: as §1, §2, §7, §8, §9, §10, §11, §12

Hordeum vulgare (HORVS) = assay: Post-emergence application in field trials, HORVS; details: water volume 100 l/ha, pre plant burndown, 18 g ai/ha
Experimental: as §1, §2, §3, §4, §5, §13, §14

[7] = test system: Erigeron canadensis (ERICA); assay: Post-emergence application in greenhouse trials, ERICA; details: 20 DAT; GS 19; B-1 1.1 g ai/ha
Experimental: as §1, §2, §7
as §8, with “treatment. […]” for “treatment.”
The test period extended over 2 to 4 weeks. During this time, the plants were tended and their response to the individual treatments was evaluated. […]

Setaria italica (SETIT) = assay: Post-emergence application in field trials, SETIT; details: 22 DAT; water volume 200 l/ha; growth stage 21-31; 12.5 g ai/ha
Experimental: as §1, §2, §3, §4, §5, §6

[8] = test system: Lolium multiflorum (LOLMU); assay: Post-emergence application in greenhouse trials, LOLMU; details: 20 DAT; growth stage 13; 0.9 g ai/ha
Experimental: as §1, §2, §7, §8, §9, §10, §11, §12

[9] = test system: Brachiaria decumbens (BRADC); assay: Post-emergence application in field trials, BRADC; details: 3 DAT; water volume 200 l/ha; growth stage 21-31; height 3-20 cm; 12.5 g ai/ha
Experimental: as §1, §2, §3, §4, §5, §6

[10] = 20 DAT, growth stage 14, 0.3 g ai/ha

With C#CCN1C(=O)C(F)(F)Oc2cc(F)c(-n3c(=O)n(C)c(=S)n(C)c3=O)cc21 [B-1, trifludimoxazin] the “% Herbicidal activity” value [1] was 60%, the “% Herbicidal activity” value ([2]; 7 DAT, GS 12, B-1 0.3 g ai/ha) was 15% and 10% and the “% Herbicidal activity” value ([2]; 7 DAT, GS 12, B-1 0.4 g ai/ha) was 15%. For the same compound, the “% Herbicidal activity” value ([2]; 7 DAT, GS 12, B-1 0.8 g ai/ha) was 45%, the “% Herbicidal activity” value ([2]; 19 DAT, B-1 formulated as 500 g/l, GS 13, B-1 2 g ai/ha) was 40% and the “% Herbicidal activity” value ([3]; 7 DAT, B-1 formulated as 500 g/l, GS 14, B-1 1 g ai/ha) was 15%. For the same compound, the “% Herbicidal activity” value ([3]; 7 DAT, B-1 formulated as 500 g/l, GS 14, B-1 2 g ai/ha) was 35%, the “% Herbicidal activity” value ([3]; 20 DAT, B-1 formulated as 500 g/l, GS 14, B-1 2 g ai/ha) was 30% and the “% Herbicidal activity” value ([3]; 20 DAT, GS 14, B-1 0.9 g ai/ha) was 65%. For the same compound, the “% Herbicidal activity” value ([3]; 20 DAT, GS 14, B-1 1.1 g ai/ha) was 65%, the “% Herbicidal activity” value [3, 10] was 10% and the “% Herbicidal activity” value (Avena fatua (AVEFA); 7 DAT, GS 13, B-1 0.2 g ai/ha) was 20%. The “% Herbicidal activity” value (Avena fatua (AVEFA); 20 DAT, B-1 formulated as 500 g/l, GS 12, B-1 1 g ai/ha) was 15%, the “% Herbicidal activity” value (Avena fatua (AVEFA); 20 DAT, growth stage 13, 0.9 g ai/ha) was 20% and the “% Herbicidal activity” value (Kochia scoparia (KCHSC); 6 DAT, GS 33, B-1 0.3 g ai/ha) was 45%. The “% Herbicidal activity” value (Kochia scoparia (KCHSC); 6 DAT, GS 33, B-1 0.5 g ai/ha) was 80%, the “% Herbicidal activity” value (Kochia scoparia (KCHSC); 6 DAT, GS 33, B-1 0.8 g ai/ha) was 85% and the “% Herbicidal activity” value (Kochia scoparia (KCHSC); 20 DAT, GS 33, B-1 0.3 g ai/ha) was 35%. For the same compound, the “% Herbicidal activity” value (Kochia scoparia (KCHSC); 20 DAT, GS 33, B-1 0.9 g ai/ha) was 80%, the “% Herbicidal activity” value (Kochia scoparia (KCHSC); 20 DAT, GS 33, B-1 1 g ai/ha) was 98% and the “% Herbicidal activity” value (Kochia scoparia (KCHSC); 20 DAT, growth stage 33, 0.3 g ai/ha) was 35%. The “% Herbicidal activity” value (Kochia scoparia (KCHSC); 20 DAT, growth stage 33, 0.5 g ai/ha) was 75%, the “% Herbicidal activity” value [4] was 68% and the “% Herbicidal activity” value (Setaria faberi (SETFA); 7 DAT, B-1 0.9 g ai/ha) was 45%. The “% Herbicidal activity” value (Setaria faberi (SETFA); 20 DAT, B-1 0.3 g ai/ha) was 15%, the “% Herbicidal activity” value (Setaria faberi (SETFA); 20 DAT, B-1 0.9 g ai/ha) was 70% and the “% Herbicidal activity” value [5] was 20%. The “% Herbicidal activity” value [6] was 27%, the “% Herbicidal activity” value (Setaria viridis (SETVI); 7 DAT, GS 14, B-1 0.3 g ai/ha) was 35% and the “% Herbicidal activity” value (Setaria viridis (SETVI); 7 DAT, GS 14, B-1 0.8 g ai/ha) was 45%. The “% Herbicidal activity” value (Setaria viridis (SETVI); 7 DAT, GS 14, B-1 0.9 g ai/ha) was 55%, the “% Herbicidal activity” value (Setaria viridis (SETVI); 7 DAT, GS 14, B-1 1 g ai/ha) was 60% and the “% Herbicidal activity” value (Setaria viridis (SETVI); 20 DAT, GS 14, B-1 0.3 g ai/ha) was 10%. The “% Herbicidal activity” value (Setaria viridis (SETVI); 20 DAT, GS 14, B-1 0.9 g ai/ha) was 70%, the “% Herbicidal activity” value (Setaria viridis (SETVI); [10]) was 10% and the “% Herbicidal activity” value (Hordeum vulgare (HORVS); 28 DAT, growth stage 21-24, height 15-37 cm) was 0%. For the same compound, the “% Herbicidal activity” value (Hordeum vulgare (HORVS); 29 DAT, growth stage 15-24, height 25-45 cm) was 0%, the “% Herbicidal activity” value [7] was 40% and the “% Herbicidal activity” value (Setaria italica (SETIT)) was 27%. The “% Herbicidal activity” value [8] was 15% and the “% Herbicidal activity” value [9] was 43%.
